In patent US4461899A, “Fluorenecarboxylic acid derivatives” (Diamond Shamrock Chemicals Company, priority 1982, dated 1984):
Entries after “also recorded” stand apart in the source; their conditions may differ. Counter-ions that a name gives are not always drawn.

Key:
[1] = tested on: Kentucky and Merion turfgrass mixture; experiment: Turfgrass growth retardation (height and fresh weight of clippings) after spraying; format: in vivo; details: for % Reduction in Weight / Reduction in Height: vs control
Protocol: Two known plant growth regulants were similarly tested. Some grass samples were not treated, only fertilized, as controls. Before treatment, the grass was cut and then fertilized with a 20-20-20 water-soluble fertilizer. Three pots were sprayed per treatment. […] The pots were placed in a plant growth room and were watered daily. The grass was cut at 21, 49 and 84 days after being treated; the blade height and total fresh weight of the clippings were measured.

[2] = tested on: field grown tomato plants; experiment: Overall yield and fruit size of field grown tomatoes; format: in vivo; details: for Fruit Size, Green (% of Control): control 104.0 g; for Fruit Size, Red (% of Control): control 105.5 g
Text: This example illustrates the effects of compounds of this invention on overall yield of tomatoes. For the test, field grown tomato plants, when in the early flowering stage, were foliage sprayed with the particular compounds of the invention designated below, and with the commercial product CF-125 (Maintain), at rates of 10, 50 and 500 ppm. These rates correspond to applications of 3.69 g, 18.54 g and 185.4 g/hectare, respectively. Each treatment consisted of five plants; the experimental design was a complete randomized block with three replications. A block of untreated plants was included as the control. The fruit was harvested by hand and separated into […] ripe fruit and marketable green fruit.

[3] = tested on: field grown tomato plants; experiment: Fruit set and phytotoxicity in field grown tomato plants; format: in vivo; details: for Increase Over Control (%) of fruit set: 24 days; for Fruit Set Per Plant (After 24 days) / Phytotoxicity: 24 days after treatment; for Increase (%) of fruit set: initial to 24 days
Text: To determine fruit set effects by compounds of this invention, field grown tomato plants were foliage sprayed with the cis-2,5-dimethylpyrrolidine salt of […], 9-cis-2,5-dimethyl-1-pyrrolidinyl-2-chlorofluorene-9-carboxylic acid, methyl ester, and the commercial plant growth regulant, MAINTAIN CF-125 (methyl-2-chloro-9hydroxyfluorene-9-carboxylate, manufactured by U.S. Borax and Chemical Corp.). Rates of application employed were 5, 25, and 100 ppm when the tomato plants were in the late blooming to early fruit setting stage. Untreated plants were included in the test as controls. Five plants were sprayed for each chemical treatment. The number of fruit set and the degree of phytotoxicity to the plants were determined 24 days after treatment.

soybean plants = experiment: Soybean yield after foliar spray at early flowering stage; format: in vivo; details: for Yield Improvement %: vs control
Text: Two 50 cm rows of soybean plants at the early flowering stage were sprayed with 100 ppm or 500 ppm of the cis-2,5-dimethylpyrrolidine salt of 9-fluorenecarboxylic acid, using a spray volume of about 375 liters/hectare (40 gallons/acre). For comparison, other rows were sprayed with like concentrations of two known compounds as designated below. Also 2 untreated rows were maintained to serve as a control: each of the plots was weeded by hand as needed. At maturity, each plot was harvested and the yield was determined.

[4] = tested on: "Walter" variety tomato plants; experiment: Yield of "Walter" variety tomatoes, weekly harvest of mature red fruit; format: in vivo; details: for Total Fruit / Total Fruit, % of Control: weeks 1-6
Text: Compounds of this invention were further tested as tomato yield enhancers as follows:
"Walter" variety tomato plants, in the early flowering stage, were foliage sprayed at a rate of 68.8 liters/hectare with compounds of this invention, and with the commercial product, CF-125. Each plot consisted of 20 plants; the experimental design was a completed randomized block with three replications. A plot of untreated plants was included as a control. Marketable, mature red tomatoes were harvested weekly, beginning 5 weeks after treatment.

plants being treated = details: background; in many instances; cited from earlier work
[5] = 1.12 kilogram/hectare, after 21 days
[6] = 1.12 kilogram/hectare, after 49 days
[7] = 1.12 kilogram/hectare, after 84 days
[8] = 2.24 kilogram/hectare, after 21 days
[9] = 2.24 kilogram/hectare, after 49 days
[10] = 2.24 kilogram/hectare, after 84 days
[11] = 4.48 kilogram/hectare, after 21 days
[12] = 4.48 kilogram/hectare, after 49 days
[13] = 4.48 kilogram/hectare, after 84 days
[14] = third dosage column, printed 1.12 kilogram/hectare, after 21 days

SMILES: O=C(O)c1cccc2c1Cc1ccccc1-2 [Example 1, cis-2,5-dimethyl-1-pyrrolidine salt of 1-fluorenecarboxylic acid]
- % Reduction in Weight [1, 5]: 76%
- Reduction in Height [1, 5]: 50%
- % Reduction in Weight [1, 6]: 45%
- Reduction in Height [1, 6]: 45%
- % Reduction in Weight [1, 7]: 0%
- Reduction in Height [1, 7]: 0%
- % Reduction in Weight [1, 8]: 73%
- Reduction in Height [1, 8]: 48%
- % Reduction in Weight [1, 9]: 64%
- Reduction in Height [1, 9]: 46%
- % Reduction in Weight [1, 10]: 0%
- Reduction in Height [1, 10]: 0%
- Reduction in Height [1, 11]: 56%
- % Reduction in Weight [1, 12]: 63%
- Reduction in Height [1, 12]: 46%
- % Reduction in Weight [1, 13]: 19%
- Reduction in Height [1, 13]: 31%
- appearance of treated turf (leaf, texture) ([1]; in words): fine leaf and smooth texture; it did not have the twisted, yellowish leaves
- activity in controlling grass growth ([1]; in words, compared with MAINTAIN CF-125 and MOW-LESS): more active in controlling grass growth than either MAINTAIN CF-125 or MOW-LESS
- % Reduction in Weight [1, 14]: 75%
- tomato yield / fruit size, in words ([2]; 10, 50 and 500 ppm, Example 1 decrease at 500 ppm): enhanced, at the rates applied, either the total yield of tomatoes and/or the percentage of red fruit vs. green fruit; also recorded: caused a decrease in all yields when applied at a rate of 500 ppm
- Fruit Yield, Green (% of Control) ([2]; 10 ppm): 92 % of Control
- Fruit Yield, Red (% of Control) ([2]; 10 ppm): 152 % of Control
- Total Yield (% of Control) ([2]; 10 ppm): 113 % of Control
- Fruit Size, Green (% of Control) ([2]; 10 ppm): 76 % of Control
- Fruit Size, Red (% of Control) ([2]; 10 ppm): 87 % of Control
- Fruit Yield, Green (% of Control) ([2]; 50 ppm): 45 % of Control
- Fruit Yield, Red (% of Control) ([2]; 50 ppm): 149 % of Control
- Total Yield (% of Control) ([2]; 50 ppm): 80 % of Control
- Fruit Size, Green (% of Control) ([2]; 50 ppm): 93 % of Control
- Fruit Size, Red (% of Control) ([2]; 50 ppm): 73 % of Control
- Fruit Yield, Green (% of Control) ([2]; 500 ppm): 54 % of Control
- Fruit Yield, Red (% of Control) ([2]; 500 ppm): 68 % of Control
- Total Yield (% of Control) ([2]; 500 ppm): 59 % of Control
- Fruit Size, Green (% of Control) ([2]; 500 ppm): 87 % of Control
- Fruit Size, Red (% of Control) ([2]; 500 ppm): 79 % of Control
- Increase Over Control (%) of fruit set ([3]; 5 ppm): 35%
- Fruit Set Per Plant (After 24 days) ([3]; 5 ppm): 16.2
- Phytotoxicity ([3]; 5 ppm): 0
- Fruit Set Per Plant (Initial) ([3]; 5 ppm): 7.6
- Increase (%) of fruit set ([3]; 5 ppm): 108%
- Increase Over Control (%) of fruit set ([3]; 25 ppm): 18%
- Fruit Set Per Plant (After 24 days) ([3]; 25 ppm): 21.0
- Phytotoxicity ([3]; 25 ppm): 0
- Fruit Set Per Plant (Initial) ([3]; 25 ppm): 11.0
- Increase (%) of fruit set ([3]; 25 ppm): 91%
- Increase Over Control (%) of fruit set ([3]; 100 ppm): 47%
- Fruit Set Per Plant (After 24 days) ([3]; 100 ppm): 23.8
- Phytotoxicity ([3]; 100 ppm): light
- Fruit Set Per Plant (Initial) ([3]; 100 ppm): 10.8
- Increase (%) of fruit set ([3]; 100 ppm): 120%
- Yield (Kilograms) × 10^2 (soybean plants; 100 ppm): 19.38 Kilograms × 10^2
- Yield Improvement % (soybean plants; 100 ppm): 9.8%
- Yield (Kilograms) × 10^2 (soybean plants; 500 ppm): 21.98 Kilograms × 10^2
- Yield Improvement % (soybean plants; 500 ppm): 24.1%

SMILES: COC(=O)C1(O)c2ccccc2-c2ccc(Cl)cc21 (centres unmarked) [MAINTAIN CF-125, methyl-2-chloro-9-hydroxyfluorene-9-carboxylate]
- % Reduction in Weight [1, 5]: 31%
- Reduction in Height [1, 5]: 36%
- % Reduction in Weight [1, 6]: 0%
- Reduction in Height [1, 6]: 3%
- % Reduction in Weight [1, 7]: 0%
- Reduction in Height [1, 7]: 0%
- % Reduction in Weight [1, 8]: 38%
- Reduction in Height [1, 8]: 42%
- % Reduction in Weight [1, 9]: 0%
- Reduction in Height [1, 9]: 0%
- % Reduction in Weight [1, 10]: 0%
- Reduction in Height [1, 10]: 0%
- Reduction in Height [1, 11]: 50%
- % Reduction in Weight [1, 12]: 4%
- Reduction in Height [1, 12]: 14%
- % Reduction in Weight [1, 13]: 0%
- Reduction in Height [1, 13]: 0%
- % Reduction in Weight [1, 14]: 52%
- Fruit Yield, Green (% of Control) ([2]; 10 ppm): 25 % of Control
- Fruit Yield, Red (% of Control) ([2]; 10 ppm): 24 % of Control
- Total Yield (% of Control) ([2]; 10 ppm): 25 % of Control
- Fruit Size, Green (% of Control) ([2]; 10 ppm): 104 % of Control
- Fruit Size, Red (% of Control) ([2]; 10 ppm): 97 % of Control
- Fruit Yield, Green (% of Control) ([2]; 50 ppm): 12 % of Control
- Fruit Yield, Red (% of Control) ([2]; 50 ppm): 122 % of Control
- Total Yield (% of Control) ([2]; 50 ppm): 44 % of Control
- Fruit Size, Green (% of Control) ([2]; 50 ppm): 62 % of Control
- Fruit Size, Red (% of Control) ([2]; 50 ppm): 88 % of Control
- Fruit Yield, Green (% of Control) ([2]; 500 ppm): 3 % of Control
- Fruit Yield, Red (% of Control) ([2]; 500 ppm): 79 % of Control
- Total Yield (% of Control) ([2]; 500 ppm): 29 % of Control
- Fruit Size, Green (% of Control) ([2]; 500 ppm): 54 % of Control
- Fruit Size, Red (% of Control) ([2]; 500 ppm): 108 % of Control
- Fruit Yield (kg/plot) ([4]; 5 ppm): 25.6 kg/plot
- Total Yield Wt. % of Control ([4]; 5 ppm): 108.0 % of Control
- Fruit harvested, Harvest Time (Week) 1 ([4]; 5 ppm): 34
- Fruit harvested, Harvest Time (Week) 2 ([4]; 5 ppm): 206
- Fruit harvested, Harvest Time (Week) 3 ([4]; 5 ppm): 139
- Fruit harvested, Harvest Time (Week) 4 ([4]; 5 ppm): 40
- Fruit harvested, Harvest Time (Week) 5 ([4]; 5 ppm): 29
- Fruit harvested, Harvest Time (Week) 6 ([4]; 5 ppm): 178
- Total Fruit ([4]; 5 ppm): 626
- Total Fruit, % of Control ([4]; 5 ppm): 109 % of Control
- Fruit Yield (kg/plot) ([4]; 10 ppm): 15.3 kg/plot
- Total Yield Wt. % of Control ([4]; 10 ppm): 64.8 % of Control
- Fruit harvested, Harvest Time (Week) 1 ([4]; 10 ppm): 6
- Fruit harvested, Harvest Time (Week) 2 ([4]; 10 ppm): 192
- Fruit harvested, Harvest Time (Week) 3 ([4]; 10 ppm): 92
- Fruit harvested, Harvest Time (Week) 4 ([4]; 10 ppm): 16
- Fruit harvested, Harvest Time (Week) 5 ([4]; 10 ppm): 4
- Fruit harvested, Harvest Time (Week) 6 ([4]; 10 ppm): 69
- Total Fruit ([4]; 10 ppm): 379
- Total Fruit, % of Control ([4]; 10 ppm): 66 % of Control
- Fruit Yield (kg/plot) ([4]; 50 ppm): 2.6 kg/plot
- Total Yield Wt. % of Control ([4]; 50 ppm): 11.0 % of Control
- Fruit harvested, Harvest Time (Week) 1 ([4]; 50 ppm): 15
- Fruit harvested, Harvest Time (Week) 2 ([4]; 50 ppm): 18
- Fruit harvested, Harvest Time (Week) 3 ([4]; 50 ppm): 8
- Fruit harvested, Harvest Time (Week) 4 ([4]; 50 ppm): 0
- Fruit harvested, Harvest Time (Week) 5 ([4]; 50 ppm): 0
- Fruit harvested, Harvest Time (Week) 6 ([4]; 50 ppm): 2
- Total Fruit ([4]; 50 ppm): 43
- Total Fruit, % of Control ([4]; 50 ppm): 7 % of Control
- phytotoxicity, in words (plants being treated): phytotoxic to the plants being treated
- Increase Over Control (%) of fruit set ([3]; 5 ppm): -35%
- Fruit Set Per Plant (After 24 days) ([3]; 5 ppm): 11.8
- Fruit Set Per Plant (Initial) ([3]; 5 ppm): 7.8
- Increase (%) of fruit set ([3]; 5 ppm): 38%
- Increase Over Control (%) of fruit set ([3]; 25 ppm): -23%
- Fruit Set Per Plant (After 24 days) ([3]; 25 ppm): 12.6
- Fruit Set Per Plant (Initial) ([3]; 25 ppm): 8.4
- Increase (%) of fruit set ([3]; 25 ppm): 50%
- Increase Over Control (%) of fruit set ([3]; 100 ppm): -55%
- Fruit Set Per Plant (After 24 days) ([3]; 100 ppm): 8.0
- Fruit Set Per Plant (Initial) ([3]; 100 ppm): 6.8
- Increase (%) of fruit set ([3]; 100 ppm): 18%
